From publication PMC8637440, “Structural Modifications Yield Novel Insights Into the Intriguing Pharmacodynamic Potential of Anti-inflammatory Nitro-Fatty Acids” (Frontiers in Pharmacology, 2021)

Target: T1, COX-2 (Homo sapiens, UniProt P35354)
T1 sequence (P35354 18-604): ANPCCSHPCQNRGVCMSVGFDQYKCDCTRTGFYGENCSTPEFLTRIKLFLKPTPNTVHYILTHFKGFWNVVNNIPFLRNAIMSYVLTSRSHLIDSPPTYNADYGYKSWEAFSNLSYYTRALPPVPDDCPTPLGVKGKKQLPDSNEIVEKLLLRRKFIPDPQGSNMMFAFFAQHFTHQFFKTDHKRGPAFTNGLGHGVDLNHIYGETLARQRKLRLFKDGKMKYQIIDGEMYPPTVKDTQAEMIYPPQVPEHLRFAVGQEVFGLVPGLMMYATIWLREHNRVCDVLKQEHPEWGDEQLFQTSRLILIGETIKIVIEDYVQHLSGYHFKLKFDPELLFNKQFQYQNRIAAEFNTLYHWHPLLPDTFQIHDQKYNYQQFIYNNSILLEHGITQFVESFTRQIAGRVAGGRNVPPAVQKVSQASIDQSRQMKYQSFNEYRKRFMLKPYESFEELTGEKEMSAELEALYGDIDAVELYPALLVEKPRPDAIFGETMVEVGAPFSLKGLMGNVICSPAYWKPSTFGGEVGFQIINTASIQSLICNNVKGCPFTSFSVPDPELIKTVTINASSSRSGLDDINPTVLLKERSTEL
Experiment: Recombinant COX-2 peroxidase activity assay
Assay type: biochemical
Set-up: purchased Cayman Chemicals #700100
Conditions: 30 min preincubation
Experimental: The effects of NFA on COX-2 activity were analyzed using a recombinant COX-2 activity assay using a COX Fluorescent Inhibitor Screening Assay Kit (Cayman Chemicals, #700100). The assay was performed according to the manufacturer’s instructions in a black 96-well microplate. Human COX-2 was pre-incubated with NFA and control inhibitors for 30 min at RT following the addition of ADHP (10-acetyl-3,5-dihydroxyphenoxazine) and AA. The mixture was incubated again for 2 min at RT, and the fluorescence was measured at excitation/emission wavelengths of 535/587 nm.
FIGURE 4 Effects of NFA on COX-2 peroxidase activity. […] Peroxidase activity was measured by the appearance of TMPD. Data are presented as the percent of the control mean ± SD, n = 4. Statistical significance was calculated by one-way ANOVA with Bonferroni post-test. **p ≤ 0.0021, ***p ≤ 0.0002, ****p ≤ 0.0001 are considered significant.

inhibition at 10 µM [%] | SMILES | inhibition of recombinant COX-2 peroxidase activity (10 µM)
> 90 | CCCCCCCC=C(CCCCCCCCC(=O)O)[N+](=O)[O-] [18.10.10, 10-nitro-octadec-10-enoic acid] | 
> 85 | CCCCCCCCCCC=C(CCCCCCCC(=O)O)[N+](=O)[O-] [20.9.9, 9-nitro-eicos-9-enoic acid] | 
 | CCCCCCCC/C=C\CCCCCCCC(=O)O [OA, oleic acid, reference compound] | only weakly affected

SMILES | inhibition at 10 µM [%] | inhibition of recombinant COX-2 peroxidase activity (10 µM)
CCCCCCCCC=C(CCCCCCCC(=O)O)[N+](=O)[O-] [18.9.9, 9-nitro-octadec-9-enoic acid] | > 65 | 
